Measured values published in ChEMBL document CHEMBL1201862, “PubChem BioAssay data set” (2004).
Calls of active or inactive are those of the source.

Tests used:
[1] = tested on: HEK293; experiment: cells; type: functional, cell-based; details: Homo sapiens
[2] = target: T1, Nuclear receptor subfamily 0 group B member 1 (Homo sapiens, UniProt P51843); experiment: Luminescence-based cell-based high throughput dose response assay for inhibitors of the orphan nuclear receptor subfamily 0, group B, member 1 (DAX1; NR0B1). [Related pubchem assays (depositor defined):AID504766, AID504790]; type: functional
T1 sequence (P51843 whole entry): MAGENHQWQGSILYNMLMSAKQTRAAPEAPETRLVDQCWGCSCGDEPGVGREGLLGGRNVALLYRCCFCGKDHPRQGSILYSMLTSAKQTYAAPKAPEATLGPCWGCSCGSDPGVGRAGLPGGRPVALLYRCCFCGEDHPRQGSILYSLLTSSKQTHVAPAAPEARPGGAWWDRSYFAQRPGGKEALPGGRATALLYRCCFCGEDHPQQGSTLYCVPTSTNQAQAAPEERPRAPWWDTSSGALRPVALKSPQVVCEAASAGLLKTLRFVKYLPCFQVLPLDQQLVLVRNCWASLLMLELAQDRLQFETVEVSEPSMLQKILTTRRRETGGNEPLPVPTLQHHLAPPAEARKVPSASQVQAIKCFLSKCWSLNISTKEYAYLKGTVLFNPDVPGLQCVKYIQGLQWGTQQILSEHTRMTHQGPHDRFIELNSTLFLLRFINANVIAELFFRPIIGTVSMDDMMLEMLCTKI

[3] = viability of uninfected HEp-2 cells – cell-based, HTS, cytotoxicity control for RSV inhibitor project, dose response (AID 2410); type: functional; details: human respiratory syncytial virus
[4] = target: T2, Type-1 angiotensin II receptor (Homo sapiens, UniProt P30556); experiment: antagonism of angiotensin II type 1 receptor – cell-based, uHTS hits, selectivity assay for APJ receptor antagonist project, dose response (AID 463214); type: functional;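 further: antagonist potency against angiotensin II stimulated AT1 response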
T2 sequence (P30556 whole entry): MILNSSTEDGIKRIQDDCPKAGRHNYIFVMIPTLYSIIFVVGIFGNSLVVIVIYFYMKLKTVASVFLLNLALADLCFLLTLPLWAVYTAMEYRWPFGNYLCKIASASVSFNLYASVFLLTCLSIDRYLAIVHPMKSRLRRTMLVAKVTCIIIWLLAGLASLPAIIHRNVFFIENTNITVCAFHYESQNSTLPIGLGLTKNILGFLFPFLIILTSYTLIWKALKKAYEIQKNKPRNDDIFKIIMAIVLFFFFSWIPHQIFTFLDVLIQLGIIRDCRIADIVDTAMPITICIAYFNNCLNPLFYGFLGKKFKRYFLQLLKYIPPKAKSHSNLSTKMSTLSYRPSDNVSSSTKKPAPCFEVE

[5] = target: Beta-galactosidase (Escherichia coli, UniProt Q8VNN2); experiment: PubChem AID 485352; type: functional
[6] = NIH-3T3 fibroblast cytotoxicity, dose response, cytotoxicity control, cell-based, fluorescence, Alamar Blue, secondary assay (AID 2327); type: functional;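 further: NIH-3T3 mouse fibroblasts cultured with fluconazole at 8 µg/mL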
[7] = target: T3, Melanocortin receptor 4 (Homo sapiens, UniProt P32245); type: functional, cell-based;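 further: Cell-based assay with luminescence read-out, confirmatory dose-response testing for agonist activity of biased ligands at MC4R; human U2OS cells with tagged receptor and beta-arrestin; potency of agonists that increase receptor coupling to beta-arrestin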
[8] = viability of PTEN-deleted HCT116 cells – cell-based, HCT116 PTEN knockout, dose response (AID 1047); type: functional;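 further: HCT116 colon tumor cells with PTEN knocked out; cells exposed to compound for 60 hours before readout; potency for loss of cell viability measured by luminescence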
[9] = alpha-synuclein stem-loop luciferase translation blockers – H4 neuroglioma cells, luminescence, confirmation (AID 1988); type: functional, cell-based
[10] = Luminescence Cell-Based Dose Response HTS to Identify Inhibitors of 5'UTR Stem-Loop Driven Prion Protein mRNA Translation in H4 Neuroglioblastoma Cells. [Related pubchem assays: 1827 (Project Summary), 1813 (Primary HTS)]; type: functional
[11] = microbe, parasite or virus in culture; type: functional; details: Mycobacterium tuberculosis
[12] = fluconazole-exposed Candida albicans growth modulators – fluorescence, retest, confirmation (AID 2467); type: functional, cell-based
[13] = viability of HCT116 lacking mutant beta-catenin – cell-based, human colon tumor, dose response (AID 1045); type: functional;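 further: HCT116 colon tumor cells with beta catenin knocked out; cells exposed to compound for 60 hours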
[14] = target: T4, Ubiquitin-conjugating enzyme E2 N (Homo sapiens, UniProt P61088); type: functional;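 further: Dose-response confirmation in a TR-FRET assay detecting UBC13-driven polyubiquitin chain formation, inhibition measured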
T4 sequence (P61088 whole entry): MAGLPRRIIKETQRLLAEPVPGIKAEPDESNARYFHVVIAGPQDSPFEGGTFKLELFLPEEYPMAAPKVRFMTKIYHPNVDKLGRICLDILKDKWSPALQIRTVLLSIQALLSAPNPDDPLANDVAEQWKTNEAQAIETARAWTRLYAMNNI

[15] = NIH3T3 cell viability loss – ATP luminescence, mouse fibroblasts, counter-screen, dose response (AID 2010); type: functional, cell-based;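 further: cells exposed to compound for about 90 hours before reading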
[16] = Trypanosoma cruzi growth suppression in host cells – NIH3T3 host cells, beta-gal luminescence, confirmation (AID 2044); type: functional, cell-based;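 further: intracellular parasites grown in NIH/3T3 mouse fibroblasts as host cells; luminescent beta-galactosidase reporter signal from transgenic T. cruzi replicating inside host cells; inhibitors lower the luminescence signal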
[17] = target: T3, Melanocortin receptor 4; experiment: inhibitors of MC4R cAMP signaling – cell-based, TR-FRET, biased antagonists, dose response (AID 602298); type: functional;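 further: antagonist potency against agonist-stimulated cAMP production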
[18] = cAMP pathway inhibition in counterscreen cell line – TR-FRET cAMP detection, counter-screen for MC4R biased antagonist project, dose response (AID 602305); type: functional, cell-based;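 further: U2OS cells stimulated with forskolin near its EC80 as the cAMP inducer; potency is for inhibition of forskolin-stimulated cAMP signaling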
[19] = target: T5, Sentrin-specific protease 8 (Homo sapiens, UniProt Q96LD8); experiment: inhibition of human SENP8 cleavage activity – biochemical, luminescence, SAR follow-up (AID 504501); type: functional
T5 sequence (Q96LD8 whole entry): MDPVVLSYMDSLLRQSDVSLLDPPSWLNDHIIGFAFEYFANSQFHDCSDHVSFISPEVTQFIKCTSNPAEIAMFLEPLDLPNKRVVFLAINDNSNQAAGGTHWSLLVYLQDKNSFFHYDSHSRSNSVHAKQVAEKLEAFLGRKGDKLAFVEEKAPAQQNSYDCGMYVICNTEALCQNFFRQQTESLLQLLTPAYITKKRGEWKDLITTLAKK

[20] = target: T6, Sentrin-specific protease 6 (Homo sapiens, UniProt Q9GZR1); experiment: SAR Analysis of small molecule inhibitors of Sentrin-specific protease 6 (SENP6) using a Luminescent assay. [Related pubchem assays (depositor defined):AID2582, AID2599]; type: functional
T6 sequence (Q9GZR1 whole entry): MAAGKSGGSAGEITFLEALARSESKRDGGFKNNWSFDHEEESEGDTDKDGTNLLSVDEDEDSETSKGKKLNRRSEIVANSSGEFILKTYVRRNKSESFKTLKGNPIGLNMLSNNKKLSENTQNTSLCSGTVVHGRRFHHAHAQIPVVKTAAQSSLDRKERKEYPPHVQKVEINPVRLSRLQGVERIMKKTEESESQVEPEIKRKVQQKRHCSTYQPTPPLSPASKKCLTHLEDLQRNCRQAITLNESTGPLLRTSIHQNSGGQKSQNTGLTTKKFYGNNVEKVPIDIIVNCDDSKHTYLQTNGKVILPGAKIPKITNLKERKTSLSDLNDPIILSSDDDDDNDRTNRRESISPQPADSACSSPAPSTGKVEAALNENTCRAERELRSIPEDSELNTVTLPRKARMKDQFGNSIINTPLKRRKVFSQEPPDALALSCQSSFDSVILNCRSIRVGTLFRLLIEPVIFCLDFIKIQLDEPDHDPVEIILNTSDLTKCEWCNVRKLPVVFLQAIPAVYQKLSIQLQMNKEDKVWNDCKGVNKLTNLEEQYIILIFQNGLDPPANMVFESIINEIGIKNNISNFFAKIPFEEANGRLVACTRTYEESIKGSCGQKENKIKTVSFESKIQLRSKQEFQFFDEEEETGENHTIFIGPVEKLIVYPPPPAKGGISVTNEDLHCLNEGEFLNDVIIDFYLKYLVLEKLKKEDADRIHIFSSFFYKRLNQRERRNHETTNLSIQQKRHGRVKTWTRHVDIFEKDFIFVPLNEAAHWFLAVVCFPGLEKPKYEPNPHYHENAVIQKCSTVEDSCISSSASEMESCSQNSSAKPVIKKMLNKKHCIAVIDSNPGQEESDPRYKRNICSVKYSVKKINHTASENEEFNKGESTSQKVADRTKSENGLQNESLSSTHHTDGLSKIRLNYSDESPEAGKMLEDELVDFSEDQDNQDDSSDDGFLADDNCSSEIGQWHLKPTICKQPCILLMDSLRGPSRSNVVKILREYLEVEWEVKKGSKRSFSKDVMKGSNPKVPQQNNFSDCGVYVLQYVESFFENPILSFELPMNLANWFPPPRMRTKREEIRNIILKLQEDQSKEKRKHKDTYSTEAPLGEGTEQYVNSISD

[21] = target: T7, Sentrin-specific protease 7 (Homo sapiens, UniProt Q9BQF6); experiment: inhibition of human SENP7 cleavage activity – biochemical, luminescence, SAR follow-up (AID 504497); type: functional
T7 sequence (Q9BQF6 whole entry): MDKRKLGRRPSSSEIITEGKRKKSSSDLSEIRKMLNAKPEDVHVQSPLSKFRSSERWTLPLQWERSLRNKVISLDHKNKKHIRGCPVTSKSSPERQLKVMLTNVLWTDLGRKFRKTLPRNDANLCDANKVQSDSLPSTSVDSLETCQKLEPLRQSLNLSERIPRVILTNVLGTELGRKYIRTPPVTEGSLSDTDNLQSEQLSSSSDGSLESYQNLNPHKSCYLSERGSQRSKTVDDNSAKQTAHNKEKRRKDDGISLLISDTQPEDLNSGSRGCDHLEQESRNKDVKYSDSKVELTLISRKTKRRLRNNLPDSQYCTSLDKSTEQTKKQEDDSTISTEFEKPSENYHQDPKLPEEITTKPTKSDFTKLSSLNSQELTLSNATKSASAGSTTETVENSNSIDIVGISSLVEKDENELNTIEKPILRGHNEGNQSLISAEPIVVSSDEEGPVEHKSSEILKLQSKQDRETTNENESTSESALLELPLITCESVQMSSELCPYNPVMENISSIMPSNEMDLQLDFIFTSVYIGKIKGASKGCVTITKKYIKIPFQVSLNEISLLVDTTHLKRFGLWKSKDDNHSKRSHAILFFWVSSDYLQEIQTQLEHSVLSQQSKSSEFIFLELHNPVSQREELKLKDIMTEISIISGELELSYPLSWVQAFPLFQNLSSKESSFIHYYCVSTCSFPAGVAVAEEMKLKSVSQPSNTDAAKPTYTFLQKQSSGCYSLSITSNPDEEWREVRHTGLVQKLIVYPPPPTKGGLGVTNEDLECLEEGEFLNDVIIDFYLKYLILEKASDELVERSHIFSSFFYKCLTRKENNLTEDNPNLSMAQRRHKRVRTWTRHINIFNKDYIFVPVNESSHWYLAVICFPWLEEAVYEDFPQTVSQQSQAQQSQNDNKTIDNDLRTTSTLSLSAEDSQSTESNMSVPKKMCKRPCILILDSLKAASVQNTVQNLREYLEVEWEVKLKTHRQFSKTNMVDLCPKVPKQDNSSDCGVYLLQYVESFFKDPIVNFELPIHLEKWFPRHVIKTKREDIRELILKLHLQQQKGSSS

[22] = target: T8, Caspase-3 (Homo sapiens, UniProt P42574); experiment: SAR Analysis of small molecule inhibitors of Sentrin-specific proteases (SENPs) using a Caspase-3 Selectivity assay. [Related pubchem assays (depositor defined):AID2540, AID2599, AID434973, AID489001]; type: functional
T8 sequence (P42574 whole entry): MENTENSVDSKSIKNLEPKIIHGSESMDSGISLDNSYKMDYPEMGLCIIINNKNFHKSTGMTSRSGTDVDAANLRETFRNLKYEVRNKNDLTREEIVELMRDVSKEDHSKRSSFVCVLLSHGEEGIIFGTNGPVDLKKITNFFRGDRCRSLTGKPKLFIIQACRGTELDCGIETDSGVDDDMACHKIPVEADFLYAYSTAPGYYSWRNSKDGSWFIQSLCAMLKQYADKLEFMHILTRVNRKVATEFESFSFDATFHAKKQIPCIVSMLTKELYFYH

T3 sequence (P32245 whole entry): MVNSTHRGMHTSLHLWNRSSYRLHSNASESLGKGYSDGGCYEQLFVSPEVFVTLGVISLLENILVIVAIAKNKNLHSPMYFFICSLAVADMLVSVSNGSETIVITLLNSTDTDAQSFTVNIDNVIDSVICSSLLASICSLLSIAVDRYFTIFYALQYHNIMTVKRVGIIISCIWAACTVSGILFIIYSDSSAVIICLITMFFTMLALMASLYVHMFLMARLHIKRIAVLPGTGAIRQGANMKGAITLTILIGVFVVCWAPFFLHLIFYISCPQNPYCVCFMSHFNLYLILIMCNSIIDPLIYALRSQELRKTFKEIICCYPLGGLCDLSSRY
Sequence of Beta-galactosidase (Q8VNN2 whole entry): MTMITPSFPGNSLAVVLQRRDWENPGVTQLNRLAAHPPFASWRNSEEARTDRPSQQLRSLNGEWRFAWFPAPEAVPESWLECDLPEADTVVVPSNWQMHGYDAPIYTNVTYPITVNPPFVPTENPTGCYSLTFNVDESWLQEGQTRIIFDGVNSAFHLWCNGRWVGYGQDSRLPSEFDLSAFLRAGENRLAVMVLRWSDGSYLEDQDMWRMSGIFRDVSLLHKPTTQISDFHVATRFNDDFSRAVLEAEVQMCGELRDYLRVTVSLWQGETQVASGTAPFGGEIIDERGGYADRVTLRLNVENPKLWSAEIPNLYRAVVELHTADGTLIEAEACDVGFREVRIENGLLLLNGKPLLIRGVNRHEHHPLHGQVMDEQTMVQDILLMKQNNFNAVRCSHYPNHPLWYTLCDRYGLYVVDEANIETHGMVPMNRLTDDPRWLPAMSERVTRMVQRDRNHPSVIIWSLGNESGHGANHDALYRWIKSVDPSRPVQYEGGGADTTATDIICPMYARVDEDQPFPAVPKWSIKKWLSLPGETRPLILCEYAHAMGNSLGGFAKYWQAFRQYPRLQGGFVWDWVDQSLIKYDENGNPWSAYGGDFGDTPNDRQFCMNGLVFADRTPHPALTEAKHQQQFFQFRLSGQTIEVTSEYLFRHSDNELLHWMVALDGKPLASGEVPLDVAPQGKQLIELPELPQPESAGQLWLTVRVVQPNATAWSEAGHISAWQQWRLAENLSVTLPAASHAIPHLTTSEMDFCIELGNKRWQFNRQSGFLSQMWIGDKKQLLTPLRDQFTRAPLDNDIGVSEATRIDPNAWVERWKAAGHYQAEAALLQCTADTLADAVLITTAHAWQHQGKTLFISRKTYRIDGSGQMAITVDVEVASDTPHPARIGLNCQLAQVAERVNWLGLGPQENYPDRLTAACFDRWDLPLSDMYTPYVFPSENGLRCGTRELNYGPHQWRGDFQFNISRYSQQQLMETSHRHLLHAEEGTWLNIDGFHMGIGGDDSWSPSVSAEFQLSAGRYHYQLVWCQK

O=C(c1ccccc1)c1cnc(-c2ccccc2)s1
IC50 [1]: > 67.6 µM (inactive)
IC50 [2]: > 67.6 µM (inactive)

COc1ccc(-c2nc3ncccn3c2Br)cc1
IC50 [1]: > 67.6 µM (inactive)
CC50 [3]: 39.3 µM (active)
IC50 [2]: > 67.6 µM (inactive)

O=C(Cc1ccccc1)NCC(=O)OCC(=O)c1ccc(Cl)c([N+](=O)[O-])c1
IC50 [4]: 9.37 µM (active)
EC50 [5]: > 40 µM (inactive)

Brc1ccc(-c2csc(N3CCOCC3)n2)cc1
IC50 [1]: > 67.5 µM (inactive)
IC50 [2]: > 67.5 µM (inactive)

CN(C)CCCNC(=O)c1ccc(-c2nc(-c3ccc(Cl)cc3)cs2)cc1
EC50 [6]: 44.4 µM (inconclusive)
EC50 [7]: > 9.91 µM (active)
EC50 [8]: 2.41 µM (active)
EC50 [9]: 9.67 µM (inconclusive)
EC50 [10]: > 120 µM (not active)
CC50 [11]: 4.08 µM (active)
EC50 [12]: 3.33 µM (active)
EC50 [13]: 2.25 µM (active)
IC50 [14]: > 20 µM (inactive)
EC50 [15]: 10.2 µM (active)
IC50 [4]: 22.6 µM (not active)
EC50 [5]: > 40 µM (inactive)
EC50 [16]: 0.738 µM (active)

COC(=O)c1ccc(C2c3[nH]c4ccccc4c3C[C@H]3C(=O)N(C4CCN(Cc5ccccc5)CC4)CC(=O)N23)cc1 (some centres undefined)
IC50 [17]: > 64.6 µM (inactive)
IC50 [18]: > 64.6 µM (inactive)

CC1CCCN(c2nc(-c3cccnc3)nc3scc(-c4ccccc4)c23)C1 (centres undefined)
IC50 [17]: > 64.6 µM (inactive)
IC50 [18]: > 64.6 µM (inactive)

NC(=O)CSc1nnc(-c2ccc(O)cc2)n1Cc1ccco1
IC50 [1]: > 67.6 µM (inactive)
IC50 [2]: > 67.6 µM (inactive)

Cc1cc(Cl)ccc1NC(=O)c1ccc2c(c1)OCO2
IC50 [19]: > 99 µM (inactive)
IC50 [20]: > 99 µM (inactive)
IC50 [21]: 34.6 µM (active)
IC50 [22]: 28.1 µM (active)

COc1ccccc1NC(=O)CCC(=O)OCC(=O)c1ccc(C)c([N+](=O)[O-])c1
IC50 [4]: 33.7 µM (not active)
EC50 [5]: > 40 µM (inactive)

Oc1nnc(/C=C/c2ccc(F)cc2)o1
IC50 [19]: > 99 µM (inactive)
IC50 [20]: > 99 µM (inactive)
IC50 [21]: > 99 µM (inactive)
IC50 [22]: > 99 µM (inactive)

CCCCCC1CCC(c2nnc(S)n2C)CC1 (centres undefined)
EC50 [6]: > 150 µM (inactive)
EC50 [12]: > 38 µM (not active)
EC50 [15]: > 60 µM (not active)
IC50 [4]: > 40 µM (not active)
EC50 [5]: > 40 µM (inactive)
EC50 [16]: 1.92 µM (active)
